The record followed here is patent US12662491B2 (Redona Therapeutics, Inc., priority 2020, dated 2026).

A word on the IC50: it is the concentration needed to halve the response being measured.

For this experiment, the target named is T1, Zcchc11 enzyme (Homo sapiens, UniProt Q5TAX3).
T1 construct: made in house; host or cells: HEK293 cells (Zcchc11); E. coli Rosetta II (LIN28A)
T1 sequence (Q5TAX3 212-1420): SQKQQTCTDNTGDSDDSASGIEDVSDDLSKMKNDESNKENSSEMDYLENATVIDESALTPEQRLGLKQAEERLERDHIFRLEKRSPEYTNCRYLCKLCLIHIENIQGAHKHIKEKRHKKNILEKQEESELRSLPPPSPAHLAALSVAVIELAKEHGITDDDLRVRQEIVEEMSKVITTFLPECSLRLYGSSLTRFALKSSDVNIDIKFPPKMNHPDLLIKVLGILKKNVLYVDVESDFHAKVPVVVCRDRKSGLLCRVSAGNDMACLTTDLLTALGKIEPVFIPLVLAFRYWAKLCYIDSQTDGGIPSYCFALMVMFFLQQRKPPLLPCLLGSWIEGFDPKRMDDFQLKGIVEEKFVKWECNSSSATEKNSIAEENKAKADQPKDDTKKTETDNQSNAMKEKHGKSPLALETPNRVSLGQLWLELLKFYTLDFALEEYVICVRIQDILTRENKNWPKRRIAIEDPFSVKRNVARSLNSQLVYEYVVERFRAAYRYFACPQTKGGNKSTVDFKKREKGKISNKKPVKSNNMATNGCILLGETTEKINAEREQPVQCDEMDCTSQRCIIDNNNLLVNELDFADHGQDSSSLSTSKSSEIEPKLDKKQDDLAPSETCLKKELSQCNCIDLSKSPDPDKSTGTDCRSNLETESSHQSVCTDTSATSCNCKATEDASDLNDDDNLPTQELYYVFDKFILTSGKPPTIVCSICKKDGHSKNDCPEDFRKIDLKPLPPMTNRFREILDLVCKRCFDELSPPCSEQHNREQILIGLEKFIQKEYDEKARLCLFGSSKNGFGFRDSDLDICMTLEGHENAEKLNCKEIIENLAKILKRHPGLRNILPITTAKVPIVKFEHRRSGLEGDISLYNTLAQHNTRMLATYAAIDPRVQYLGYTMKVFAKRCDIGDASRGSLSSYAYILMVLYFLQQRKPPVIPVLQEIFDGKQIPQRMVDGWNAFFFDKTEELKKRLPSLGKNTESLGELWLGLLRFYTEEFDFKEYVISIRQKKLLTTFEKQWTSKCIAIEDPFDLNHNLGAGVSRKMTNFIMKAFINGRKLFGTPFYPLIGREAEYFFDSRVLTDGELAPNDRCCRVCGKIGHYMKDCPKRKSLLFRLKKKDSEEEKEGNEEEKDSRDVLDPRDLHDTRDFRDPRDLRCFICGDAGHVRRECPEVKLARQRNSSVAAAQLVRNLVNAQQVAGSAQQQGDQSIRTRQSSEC
Nature of the experiment: TUTase assay (Zcchc11 assay, Lin28a-dependent polyuridylation of pre-let-7). Type of experiment: biochemical. The note with it: Lin28a-dependent Zcchc11 (Z11) TUTase activity; read-out: Potency Lin28a-dep Z11 IC50. The method in brief:
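Polyuridylation measured as fluorescein loss when a rhodamine-labelled A20 probe anneals to U-tails added to fluorescein pre-let-7 (2 nM). Reaction: truncated Zcchc11 0.2 nM, E. coli-made LIN28A 10 nM, UTP 5 uM, HEPES pH 7.3, room temperature. Initial rates fitted to four-parameter IC50.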
Consider `COc1cccnc1OC[C@H]1CCCN1c1cc2c(cc1F)c(=O)c(C(=O)O)cn2-c1ccccc1` [Compound 99, (R)-6-fluoro-7-(2-(((3-methoxy-pyridin-2-yl)oxy)methyl)pyrrolidin-1-yl)-4-oxo-1-phenyl-1,4-dihydro-quinoline-3-carboxylic acid], for which the IC50 was at most 1000 nM. For `O=C(O)c1cn(-c2ccccc2)c2cc(N3CCC[C@@H]3COc3ncccc3C(F)(F)F)c(F)cc2c1=O` [Compound 100, (R)-6-fluoro-4-oxo-1-phenyl-7-(2-(((3-(trifluoro-methyl)pyridin-2-yl)oxy)methyl)pyrrolidin-1-yl)-1,4-dihydro-quinoline-3-carboxylic acid] the value was at most 1000 nM. With `Cc1cccnc1OC[C@H]1CCCN1c1cc2c(cc1F)c(=O)c(C(=O)O)cn2-c1ccc(O)cc1F` [Compound 101, (R)-6-fluoro-1-(2-fluoro-4-hydroxy-phenyl)-7-(2-(((3-methyl-pyridin-2-yl)oxy)methyl)pyrrolidin-1-yl)-4-oxo-1,4-dihydro-quinoline-3-carboxylic acid], the IC50 was at most 1000 nM.

With `Cc1cccnc1OC[C@H]1CCCN1c1cc2c(cc1F)c(=O)c(C(=O)O)cn2C1CC1` [Compound 102, (R)-1-cyclopropyl-6-fluoro-7-(2-(((3-methyl-pyridin-2-yl)oxy)methyl)pyrrolidin-1-yl)-4-oxo-1,4-dihydro-quinoline-3-carboxylic acid], the IC50 was at most 1000 nM. For `Cc1cccnc1OC[C@H]1CCCN1c1cc2c(cc1Cl)c(=O)c(C(=O)O)cn2-c1ccccc1` [Compound 103, (R)-6-chloro-7-(2-(((3-methyl-pyridin-2-yl)oxy)methyl)pyrrolidin-1-yl)-4-oxo-1-phenyl-1,4-dihydro-quinoline-3-carboxylic acid] the value was at most 1000 nM.

For the compound `Cc1cccnc1OC[C@H]1CCCN1c1cc2c(cc1Cl)c(=O)c(C(=O)O)cn2-c1ccc(O)cc1` [Compound 104, (R)-6-chloro-1-(4-hydroxy-phenyl)-7-(2-(((3-methyl-pyridin-2-yl)oxy)methyl)pyrrolidin-1-yl)-4-oxo-1,4-dihydro-quinoline-3-carboxylic acid], the IC50 was at most 1000 nM. For `Cc1ccccc1OC[C@H]1CCCN1c1cc2c(cc1F)c(=O)c(C(=O)O)cn2-c1ccc(O)cc1` [Compound 105, (R)-6-fluoro-1-(4-hydroxy-phenyl)-4-oxo-7-(2-((o-tolyloxy)methyl)pyrrolidin-1-yl)-1,4-dihydro-quinoline-3-carboxylic acid] the value was 1000 to 10000 nM. Regarding `Cc1cccc(C)c1OC[C@H]1CCCN1c1cc2c(cc1F)c(=O)c(C(=O)O)cn2-c1ccc(O)cc1` [Compound 106, (R)-7-(2-((2,6-dimethyl-phenoxy)methyl)pyrrolidin-1-yl)-6-fluoro-1-(4-hydroxy-phenyl)-4-oxo-1,4-dihydro-quinoline-3-carboxylic acid], the IC50 is above 50000 nM.

Consider `O=C(O)c1cn(-c2ccc(O)cc2)c2cc(N3CCC[C@@H]3COc3ccccc3Cl)c(F)cc2c1=O` [Compound 107, (R)-7-(2-((2-chlorophenoxy)methyl)pyrrolidin-1-yl)-6-fluoro-1-(4-hydroxy-phenyl)-4-oxo-1,4-dihydro-quinoline-3-carboxylic acid], for which the IC50 was 1000 to 10000 nM. The same measure for `CC1(n2cc(C(=O)O)c(=O)c3cc(Cl)c(N4CCC4COc4ccccn4)cc32)CC1` (centres unmarked) [Compound 108, 6-chloro-1-(1-methyl-cyclopropyl)-4-oxo-7-(2-((pyridin-2-yloxy)methyl)azetidin-1-yl)-1,4-dihydro-quinoline-3-carboxylic acid]: 10000 to 50000 nM; for `O=C(O)c1cn(-c2ccccc2)c2cc(N3CCC[C@@H]3COc3ncccc3Cl)c(Cl)cc2c1=O` [Compound 109, (R)-6-chloro-7-(2-(((3-chloropyridin-2-yl)oxy)methyl)pyrrolidin-1-yl)-4-oxo-1-phenyl-1,4-dihydro-quinoline-3-carboxylic acid]: at most 1000 nM; for `N#Cc1cccnc1OC[C@H]1CCCN1c1cc2c(cc1Cl)c(=O)c(C(=O)O)cn2-c1ccccc1` [Compound 110, (R)-6-chloro-7-(2-(((3-cyanopyridin-2-yl)oxy)methyl)pyrrolidin-1-yl)-4-oxo-1-phenyl-1,4-dihydro-quinoline-3-carboxylic acid]: at most 1000 nM. For `O=C(O)c1cn(C2CC2)c2cc(N3CCC[C@@H]3COc3ccccn3)c(Cl)cc2c1=O` [Compound 111, (R)-6-chloro-1-cyclopropyl-4-oxo-7-(2-((pyridin-2-yloxy)methyl)pyrrolidin-1-yl)-1,4-dihydro-quinoline-3-carboxylic acid] the value was 1000 to 10000 nM; for `O=C(O)c1cn(-c2ccc(O)cc2)c2cc(N3CCC[C@@H]3CNc3ncccc3Cl)c(F)cc2c1=O` [Compound 112, (R)-7-(2-(((3-chloropyridin-2-yl)amino)methyl)pyrrolidin-1-yl)-6-fluoro-1-(4-hydroxy-phenyl)-4-oxo-1,4-dihydro-quinoline-3-carboxylic acid], at most 1000 nM; for `O=C(O)c1cn(-c2ccc(O)cc2)c2cc(N3CCC[C@@H]3Cn3ccc4cccnc43)c(F)cc2c1=O` [Compound 113, (R)-7-(2-((1H-pyrrolo[2,3-b]pyridin-1-yl)methyl)pyrrolidin-1-yl)-6-fluoro-1-(4-hydroxy-phenyl)-4-oxo-1,4-dihydro-quinoline-3-carboxylic acid], at most 1000 nM. `CC1(n2cc(C(=O)O)c(=O)c3cc(Cl)c(N4CCC[C@@H]4CN4CCOCC4)cc32)CC1` [Compound 114, (R)-6-chloro-1-(1-methylcyclo-propyl)-7-(2-(morpholino-methyl)pyrrolidin-1-yl)-4-oxo-1,4-dihydro-quinoline-3-carboxylic acid]: the half-inhibitory concentration (IC50) is above 50000 nM.

Consider `CC1(n2cc(C(=O)O)c(=O)c3cc(Cl)c(N4CCC[C@@H]4CN4CCc5cccnc54)cc32)CC1` [Compound 115, (R)-6-chloro-7-(2-((2,3-dihydro-1H-pyrrolo[2,3-b]pyridin-1-yl)methyl)pyrrolidin-1-yl)-1-(1-methylcyclo-propyl)-4-oxo-1,4-dihydro-quinoline-3-carboxylic acid], for which the IC50 is 1000 to 10000 nM. The same measure for `O=C(O)c1cn(-c2ccc(O)cc2)c2cc(N3CCC[C@@H]3COc3nccc4[nH]cnc34)c(F)cc2c1=O` [Compound 116, (R)-7-(2-(((1H-imidazo[4,5-c]pyridin-4-yl)oxy)methyl)pyrrolidin-1-yl)-6-fluoro-1-(4-hydroxy-phenyl)-4-oxo-1,4-dihydro-quinoline-3-carboxylic acid]: 1000 to 10000 nM; for `O=C(O)c1cn(-c2ccc(O)cc2)c2cc(N3CCC[C@@H]3COc3nccc4cc[nH]c34)c(F)cc2c1=O` [Compound 117, (R)-7-(2-(((1H-pyrrolo[2,3-c]pyridin-7-yl)oxy)methyl)pyrrolidin-1-yl)-6-fluoro-1-(4-hydroxy-phenyl)-4-oxo-1,4-dihydro-quinoline-3-carboxylic acid]: at most 1000 nM; for `O=C(O)c1cn(-c2ccc(O)cc2)c2cc(N3CCC[C@@H]3COc3cc4cc[nH]c4cn3)c(F)cc2c1=O` [Compound 118, (R)-7-(2-(((1H-pyrrolo[2,3-c]pyridin-5-yl)oxy)methyl)pyrrolidin-1-yl)-6-fluoro-1-(4-hydroxy-phenyl)-4-oxo-1,4-dihydro-quinoline-3-carboxylic acid]: at most 1000 nM.
